In patent US8357407B2, “Agent for cutaneous photoprotection against UVA/UVB rays” (priority 2009, dated 2013):
Several values for one entry are separate records, joined by “and”; a condition that tells them apart may be missing. Identical values can stand only once. Marks after values point to notes of the source that are not given here.

Columns and labels:
[1] = system: rat skin under UVB radiation; test: Second test: UVB-induced dermal erythema and sunburnt cells in rat skin; format: in vivo; design: key to presence or absence of erythema or its manifestations in the treated area, per animal: presence (+); absence (−)
Procedure: They were acclimatized to the location where the tests were carried out during 7 days after being received. […] The animals were fed ad libitum with a standard rodent diet and running water during this period and during the experimental period. […] The products to be tested were applied directly on the skin as a gel. The test was conducted following the method described by Winder et al. “A Study of Pharmacological Influences of Ultraviolet Erythema in Guinea Pigs”. Arch. Int Pharmacodyn, 116: 261-292. 1958, and other authors such as Wendy, J et al. “The Local Antinociceptive and Topical Anti-inflammatory Effects of Propyl Gallate in Rodents”. Br. J. Pharmacol, 58: 573-581. 1976, and […]. et al. “Protective Effects of Silymarin Against Photocarcinogenesis in a Mouse Skin Model”. J. Natl. Cancer Inst. 89: 556-65. 1997, with slight modifications. The animals were shaved clean six days before the test to eliminate all traces of hair, leaving the skin on their backs completely bare. A morning (10:00 h) and evening (20:00 h) dosage regime for the substance to be tested or for the standard commenced on the first day of the test on a randomized and blind basis lasting 3 days. On the third day, after applying the corresponding morning treatments, the animals were placed and secured in the equipment's exposure platform. The animals were then placed 8 cm from the 4*40 W ultraviolet light source emitting at a fundamental frequency of 313 nm and in a range from approximately 290 to 350 nm, with an anti-UVC filter. The exposure was maintained until all animals received a total dosage of approximately 2.5 kJ/m2, with the irradiation dosis determined by means of an ultraviolet light detector. The backs of the animals were photographed 24 hours after the exposure, and the animals were sacrificed by cervical dislocation. The back skin was removed and a 2×2 cm fragment located under the area were the substance to be tested was applied was placed and maintained for 6 hours in a jar with 10% tamponated formalin, before initiating the paraffin inclusion process and preparation for the histological study. The preparations were observed under an optical microscope and the epidermal-dermal space was photographed at ×100 magnification in 5 different locations for each preparation. A count of sunburnt cells was made for each photograph, considering cells as sunburnt if they had hypereosinophilic cytoplasm with small dark and irregular dense nuclei different than those of its neighbors. The evaluation of the erythema was made on a positive/negative basis, obtaining the percentage of protected animals. The number of hypereosinophilic cells with pyknotic nuclei (sunburnt) was counted in the photographic fields for each of the five different sectors in each histological preparation. The sum of the five counts was considered as the value for each animal. […] The statistical significance of the differences was evaluated by means of non-parametric tests, such as the Fisher Test or the χ^2 (Chi Squared).

[2] = UV/VIS comparative spectral absorption; format: physicochemical
From the text: The AEDA was subjected to a UV/VIS spectral analysis at 200-400 nm to determine the peak absorbency of the compounds with UV absorbing characteristics present in the AEDA. A SHIMADZU UV-160 photospectrometer was used for this purpose, with the samples diluted in ethanol until a visible reading in the spectrum was obtained.
The AEDA absorption spectra show maximum absorption at wavelengths under 240 nm. In the band from approximately 250 nm to 350 nm. AEDA offers stable absorbency between 0.75 and 1.5 UA that blocks a significant amount of UVC, UVB and the more energetic portion of UVA light. Part of its effects may therefore be due to a screen effect that prevents the luminous radiation from reaching the skin.
The first two are located before the UVC band, and the third appears above 285 nm and extends to almost 340 nm. This behavior is typical of the polyphenols present in numerous vegetals, which provide and an effective screen effect that protects plants from solar light. When comparing the concentrations required to reach similar absorbencies, it can be observed that ferulic acid develops its effective blocking ability at 50 μg/ml, whereas with AEDA, 500 μg/ml produce a block equivalent to 50% of that obtained with 50 μg/ml of ferulic acid. To produce similar blocking intensities, the necessary concentrations of AEDA must be 10 to 50 times higher than with ferulic acid.

[3] = EDA 300 mg/ml or ferulic acid 0.5% topical, p < 0.01 versus Vehicle

concentration at which effective UV blocking ability develops [2]: 50 µg/mL
Compound: COc1cc(/C=C/C(=O)O)ccc1O [Ferulic Acid, ferulic acid]
number of sunburnt cells, Average ± S.E.M. ([1]; 10 animals per group, EDA 300 mg/ml or ferulic acid 0.5% topical, positive control vehicle 32.7 ± 1.52): 5.2 ± 1.08
number of sunburnt cells (in words) ([1]; AEDA 300 mg/ml or ferulic acid 0.5% topical, histology): small
erythema, % inhibition versus Positive Control Vehicle (suppression, subjective criteria) ([1]; EDA 300 mg/ml or ferulic acid 0.5% topical): 90%
erythema, % Protected animals [1, 3]: 70%*
sunburnt cells, % inhibition versus Positive Control Vehicle [1, 3]: 84.1%*
erythema, % Protected animals ([1]; EDA 300 mg/ml or ferulic acid 0.5% topical, p < 0.01 versus Vehicle, listed as ferulic acid): 70%
presence or absence of erythema or its manifestations in the treated area, per animal ([1]; individual animals 1-10, EDA 300 mg/ml or ferulic acid 0.5% topical, 24 hours after UVB exposure): − (6×) and + (3×)
number of sunburnt cells per animal (sum of five counts) ([1]; individual animals 1-10, EDA gel 300 mg/ml or ferulic acid gel 0.5%, 100 μl topical twice daily for 3 days, UVB approx. 2.5 kJ/m2, 24 hours after exposure): 8 and 4 (2×) and 3 (2×) and 2 and 10 and 0 and 11 and 7
